One block for each molecule: values may come before it. Where no end group is shown, it is not given here. [ ]: non-standard residue; d: D form. Nle = CCCC[C@H](N)C(=O)O
Tests used:
[1] = test system: alveolar type II epithelial cells (T2 cells); assay: Adhesion of T2 cells to pseudomatrices dissolved in 50% ethanol and air-dried/immobilized, and competitive inhibition by free peptide; type: cell-based; conditions: for Adhesion of T2 cells to pseudomatrix compared with coated FN: 50% ethanol, air-dried, 0.1-1.0 μg/well, 24 hours serum-free
Protocol: 50 μl of 2-20 μg/ml MAST-GRGDSP (Gly-Arg-Gly-Asp-Ser-Pro) (SEQ ID NO: 22) and MMAC-GRGDSP (SEQ ID NO: 22) dissolved in 50% ethanol were poured into wells, and air-dried/immobilized. Next, the wells to which MAST-GRGDSP (SEQ ID NO: 22) and MMAC-GRGDSP (SEQ ID NO: 22) (0.1-1.0 μg/well) were coated were rinsed with the serum-free DMEM medium. T2 cells suspended in the medium at the concentration of 6×10^4 cells/100 μl were seeded, and cultured in a CO2 incubator at 37° C. for 24 hours. Then, the cells were fixed with methanol, stained, and measured its absorbance according to the method in Example 7. A culture wherein FN was coated as a standard material was conducted simultaneously. The cell adhesion on FN was shown as a standard (100%).
In the same manner as in Example 18, MAST-GRGDSP (SEQ ID NO: 22) was dissolved in 50% ethanol, air-dried/immobilized on wells, and T2 cells were seeded/cultured thereon. Separately, just before the cells were seeded, 0.25-4.0 mg/ml of free GRGDSP (SEQ ID NO: 22) peptide was added to the cell suspension, and the culture and the subsequent measurement of absorbance were conducted in the same manner as described above. […] Further, when the applied amount of MAST-GRGDSP (SEQ ID NO: 22) was decreased, the immobilized amount of GRGDSP (SEQ ID NO: 22) decreased, and the competitive inhibition by free GRGDSP (SEQ ID NO: 22) peptide worked more effectively.
(§1) In the same manner as in Example 18, MMAC-GRGDSP (SEQ ID NO: 22) was dissolved in 50% ethanol, air-dried/immobilized on wells, and T2 cells were seeded/cultured thereon. Separately, just before the cells were seeded, 0.25-4.0 mg/ml of free GRGDSP (SEQ ID NO: 22) peptide was added to the cell suspension, and the culture and the subsequent measurement of absorbance were conducted in the same manner as described above.
as §1, with “MBAC/MAST-AG73 and -FIB-1 were” for “MMAC-GRGDSP (SEQ ID NO: 22) was”, “0.25” for “0.25-4.0”, “AG73 or FIB-1” for “GRGDSP (SEQ ID NO: 22)”

[2] = test system: alveolar type II epithelial cells (T2 cells); assay: Adhesion of T2 cells to pseudomatrix adsorbed/immobilized from DMEM and competitive inhibition by free peptides; type: cell-based; conditions: for Competitive inhibition of cell adhesion to pseudomatrix by free cell adhesion peptide: pseudomatrix 1-10 μg/ml in DMEM
Protocol: 200 mg each of hydrophobic binding-adsorptive polymer, MBAC, MAST or MMAC were dispersed into water, and 1 N NaOH solution was added little by little to dissolve them completely. 50 mg of WSC (1-ethyl-3-(3-dimethylamino propyl)carbodiimide, hydrochloride) was added to the resulting solution, and the reaction was conducted for 2 hours. Subsequently, 20 mg of peptide was added, and the reaction was continued with stirring for 2 hours at room temperature. After the reaction was finished, the reactant was subjected to dialysis with water to remove alkaline and low molecules, and then freeze-dried to prepare a pseudomatrix of interest.
(§2) Each pseudomatrix prepared in Example 13 to which cell adhesion peptide was bound (MBAC-peptide) was diluted in DMEM medium to the concentration of 1-10 μg/ml, and the resultant solution was poured into a 96-well by 100 μl each, and left still overnight in a CO2 incubator to be adsorbed and immobilized on the wells. Non-adsorbed MBAC-peptides were removed by rinsing well with DMEM medium. Next, T2 cells suspended at the concentration of 6×10^5 cells/ml were seeded in the serum-free DMEM by 100 μl each. After 1-day serum-free culture, T2 cells were fixed with 100 μl of methanol for 5 minutes, and stained with 50 μl of 0.4% crystal violet for 30 minutes. Excessive staining was washed with water, and the number of adhering cells was counted based on the absorbance of cytoplasm (A595).
In the same manner as in Example 14, each pseudomatrix prepared in Example 13 to which cell adhesion peptide was bound (MAST-peptide) was adsorbed and immobilized on a 96-well, and T2 cells were seeded and cultured thereon.

[3] = test system: alveolar type II epithelial cells (T2 cells); assay: Inhibition of T2 cell adhesion to immobilized pseudomatrix by treatment with polyclonal antibodies for the peptides; type: cell-based; conditions: for Inhibition of cell adhesion by anti-FIB-1 antibody: immobilized at 1 μg/ml; for Cell adhesion ability of immobilized pseudomatrix compared with coated FN: MBAC-peptide 1-10 μg/ml in DMEM; for Inhibition of cell adhesion by treatment with antibodies for the peptides: antibodies 4-10 μg/ml, 2-4 hours
Protocol: as §2, with “μg/ml,” for “μg/ml, and the resultant solution was”, “Next, 100 μl of antibodies diluted with serum-free DMEM to the concentration of 4-10 μg/ml was poured into a well, incubated for 2-4 hours to let the antibodies bind to the peptides. Normal IgG was used for control groups. Antibodies were removed after the treatment,” for “Next,”, “seeded” for “seeded in the serum-free DMEM”

[4] = test system: alveolar type II epithelial cells (T2 cells); assay: Inhibition of T2 cell adhesion by anti-FIB-1 antibody after MBAC/MAST-FIB-1 in 50% ethanol is air-dried/immobilized; type: cell-based; conditions: 4 μg/ml antibody 4 hours; FIB-1 concentration 0.1-0.25 μg/well
Protocol: In the same manner as in Example 21, MBAC/MAST-FIB-1 was diluted with 50% ethanol, poured into wells, and air-dried/immobilized. Before T2 cells were seeded, 100 μl of 4 μg/ml anti-FIB-1 polyclonal antibody was poured into the well, and incubated for 4 hours to allow the antibody to bind to the immobilized FIB-1 peptide. Controls were treated with normal IgG. T2 cells were cultured, fixed, and stained in the same manner as in Example 21.

[5] = test system: alveolar type II epithelial cells (T2 cells); assay: Inhibition of T2 cell adhesion to immobilized pseudomatrices by heparin treatment; type: cell-based; conditions: Nle used instead of Met
Protocol: Pseudomatrices prepared in Example 13 to which each cell adhesion peptide was bound (MBAC-peptide) was diluted in DMEM medium to the concentration of 1-10 μg/ml, poured into 96-wells by 100 μl each, and left still overnight in a CO2 incubator to be adsorbed and immobilized on the wells. Non-adsorbed MBAC-peptide was removed by rinsing well with DMEM medium. Next, 100 μl of DMEM in which 1 mg/ml of heparin was dissolved was poured into the wells, incubated for 2 hours to allow heparin to bind to the peptides. Control groups were treated with DMEM only. Heparin was removed after the treatment, and T2 cells suspended at the concentration of 6×10^5 cells/ml were seeded by 100 μl each. After 1-day serum-free culture, T2 cells were fixed with 100 μl of methanol for 5 minutes, and stained with 50 μl of 0.4% crystal violet for 30 minutes. Excessive staining was washed with water, and the number of adhering cells was counted based on the absorbance of cytoplasm (A595).

[6] = target: syndecan present on the cell surface of T2 cells (alveolar type II epithelial cells); assay: T2 cell adhesion to immobilized peptides, competitive inhibition by free peptides (FIGS. 8 and 9)
[7] = target: syndecan present on the cell surface of T2 cells (alveolar type II epithelial cells); assay: T2 cell adhesion to FIB-1 and AG73 co-immobilized on MMAC-coated wells, inhibition by free FIB-1 (FIG. 9)
[8] = target: adhesion receptor present on the cell surface of T2 cells (not named); assay: T2 cell adhesion to immobilized peptides, competitive inhibition by free peptides (FIGS. 8 and 9)
[9] = target: adhesion receptor present on the cell surface of T2 cells (not named); assay: T2 cell adhesion to FIB-1 and the peptide co-immobilized on MMAC-coated wells, inhibition by free FIB-1 (FIG. 9)
[10] = target: adhesion receptor present on the cell surface of T2 cells (not named); assay: cell-based or functional assay
[11] = target: integrin on T2 cells (integrin α5β1); assay: reference of the ratio; T2 cell adhesion to immobilized peptides (FIGS. 8 and 9)

Molecule: MAST-FIB-1: pseudomatrix: MAST polymer reacted with FIB-1 peptide (YAVTGRGDSPAS)
Competitive inhibition of cell adhesion by free peptide ([1]; 50% ethanol air-dried pseudomatrix, 0.25 mg/ml free AG73 or FIB-1): worked more effectively in accordance with the decrease in the amount of immobilized FIB-1
Adhesion of T2 cells to pseudomatrix compared with coated FN [1]: similarly to the case where FN was coated
Cell adhesion ability of immobilized pseudomatrix compared with directly coated FN ([2]; 1-10 μg/ml in DMEM, 1-day serum-free culture, excluding 1 μg/ml of MBAC-AG73): the same level of cell adhesion ability as in the case where FN was directly coated
Competitive inhibition of cell adhesion to pseudomatrix by free cell adhesion peptide [2]: competitively inhibited by the free cell adhesion peptide, the degree is lower than the case of MBAC-peptide
Inhibition of cell adhesion by anti-FIB-1 antibody [3]: equally inhibited
Degree of inhibition of cell adhesion by the antibody ([3]; immobilized at 2.5-10 μg/ml): low
Inhibition of cell adhesion by anti-FIB-1 polyclonal antibody [4]: specifically inhibited by the antibody

Molecule: MBAC-A4G82X: pseudomatrix: MBAC polymer reacted with A4G82X peptide (TLFLAHGRLVF[Nle]; also: peptide reacted with MBAC polymer (pseudomatrix))
Cell adhesion ability of Nle pseudomatrix compared with immobilized Met peptide [5]: the same level of cell adhesion ability
Competitive inhibition of cell adhesion to pseudomatrix by free cell adhesion peptide [2]: inhibited by free A4G82 peptide

Molecule: MBAC-AG81.2X: pseudomatrix: MBAC polymer reacted with AG81.2X peptide (VKTEYIKRKAF[Nle]; also: peptide reacted with MBAC polymer (pseudomatrix))
Cell adhesion ability of Nle pseudomatrix compared with immobilized Met peptide [5]: the same level of cell adhesion ability
Cell adhesion ability of immobilized pseudomatrix compared with coated FN [3]: the same level of cell adhesion ability as in the case where FN was coated
Inhibition of cell adhesion by treatment with antibodies for the peptides [3]: specifically inhibited

Molecule: MBAC-FIB-1: pseudomatrix: MBAC polymer reacted with FIB-1 peptide (YAVTGRGDSPAS)
Adhesion of T2 cells to pseudomatrix compared with coated FN [1]: similarly to the case where FN was coated
Competitive inhibition of cell adhesion to pseudomatrix by free cell adhesion peptide [2]: competitively inhibited
Cell adhesion ability of immobilized pseudomatrix compared with coated FN [3]: the same level of cell adhesion ability as in the case where FN was coated
Inhibition of cell adhesion by treatment with antibodies for the peptides [3]: specifically inhibited
Inhibition of cell adhesion by anti-FIB-1 antibody [3]: equally inhibited
Inhibition of cell adhesion by anti-FIB-1 polyclonal antibody [4]: specifically inhibited by the antibody

Molecule: polymer-A5G73X: pseudomatrix: polymer (MBAC in FIG. 14) reacted with A5G73X peptide (RNRLHLS[Nle]LVRP; also: peptide reacted with MBAC polymer (pseudomatrix))
Cell adhesion ability of Nle pseudomatrix compared with immobilized Met peptide [5]: the same level of cell adhesion ability

Molecule: polymer-AG76.8X: pseudomatrix: polymer (MBAC in FIG. 14) reacted with AG76.8X peptide (TLQLQEGRLHF[Nle]; also: peptide reacted with MBAC polymer (pseudomatrix))
Cell adhesion ability of Nle pseudomatrix compared with immobilized Met peptide [5]: the same level of cell adhesion ability

Binding strength to T2 cells, Ratio to FIB-1 (fold (ratio to FIB-1)) [6]: 100
mixing ratio at the transitional midpoint (peptide to FIB-1) [7]: 0.01
Molecule: RKRLQVQLSIRT [AG73 (Arg-Lys-Arg-Leu-Gln-Val-Gln-Leu-Ser-Ile-Arg-Thr)]

Binding strength to T2 cells, Ratio to FIB-1 (fold (ratio to FIB-1)) [8]: < 1
mixing ratio at the transitional midpoint (peptide to FIB-1) [9]: 1
Molecule: GPLPSYLQFVGI [A5G71 (Gly-Pro-Leu-Pro-Ser-Tyr-Leu-Gln-Phe-Val-Gly-Ile)]

competitive inhibition of T2 cell adhesion to immobilized MAST-GRGDSP by free GRGDSP peptide [10]: 4 mg/mL
competitive inhibition of T2 cell adhesion to immobilized MMAC-GRGDSP by free GRGDSP peptide [10]: 1 to 4 mg/mL
Molecule: GRGDSP [GRGDSP (Gly-Arg-Gly-Asp-Ser-Pro)]

Binding strength to T2 cells, Ratio to FIB-1 (fold (ratio to FIB-1)) [11]: 1
Molecule: YAVTGRGDSPAS [FIB-1 (Tyr-Ala-Val-Thr-Gly-Arg-Gly-Asp-Ser-Pro-Ala-Ser)]

Source: patent publication US8304238B2, “Cell culture medium and immobilized preparation of cell adhesion protein or peptide” (Nat'l Institute for Environmental Studies, priority 2003, dated 2012)
